{
  "source": "patent US20060142312A1",
  "about": "“C6-aryl and heteroaryl substituted pyrido[2,3-D] pyrimidin-7-ones” (PFIZER INC, priority 2004, published 2006)",
  "data": [
    {"values": [
      {"compound": "Cc1ccccc1Cc1cc2cnc(Nc3ccc(N4CCNCC4)cc3)nc2n(C2CCCC2)c1=O", "note": "[Example 69, 8-Cyclopentyl-6-(2-methyl-benzyl)-2-(4-piperazin-1-yl-phenylamino)-8H-pyrido[2,3-d]pyrimidin-7-one]", "melting point": "210 °C"},
      {"compound": "O=c1c(Cc2ccccc2)cc2cnc(Nc3ccccc3)nc2n1C1CCCC1", "note": "[Example 44, 6-Benzyl-8-cyclopentyl-2-phenylamino-8H-pyrido[2,3-d]pyrimidin-7-one]", "melting point": "161 to 163 °C"},
      {"compound": "O=c1c(Cc2ccccc2)cc2cnc(NCCO)nc2n1C1CCCC1", "note": "[Example 42, 6-Benzyl-8-cyclopentyl-2-(2-hydroxy-ethylamino)-8H-pyrido[2,3-d]pyrimidin-7-one]", "melting point": "177 to 179 °C"},
      {"compound": "CN(CCO)c1ncc2cc(Cc3ccccc3)c(=O)n(C3CCCC3)c2n1", "note": "[Example 48, 6-Benzyl-8-cyclopentyl-2-[(2-hydroxy-ethyl)-methyl-amino]-8H-pyrido[2,3-d]pyrimidin-7-one]", "melting point": "< 60 °C"},
      {"compound": "Cc1c(C(O)c2ccccc2)c(=O)n(C2CCCC2)c2nc(Nc3ccc(N4CCNCC4)cc3)ncc12", "note": "(centres unmarked) [Example 31, 8-Cyclopentyl-6-(hydroxy-phenyl-methyl)-5-methyl-2-(4-piperazin-1-yl-phenylamino)-8H-pyrido[2,3-d]pyrimidin-7-one]", "melting point": "185 °C (dec.)"},
      {"compound": "Cc1ccc(Cc2cc3cnc(NCCN4CCOCC4)nc3n(C3CCCC3)c2=O)cc1", "note": "[Example 75, 8-Cyclopentyl-6-(4-methyl-benzyl)-2-(2-morpholin-4-yl-ethylamino)-8H-pyrido[2,3-d]pyrimidin-7-one]", "melting point": "88 to 91 °C"},
      {"compound": "Cc1ccc(Cc2cc3cnc(NC4CCC(N(C)C)CC4)nc3n(C3CCCC3)c2=O)cc1", "note": "(centres unmarked) [Example 66, 8-Cyclopentyl-2-(4-dimethylamino-cyclohexylamino)-6-(4-methyl-benzyl)-8H-pyrido[2,3-d]pyrimidin-7-one]", "melting point": "179 to 184 °C"},
      {"compound": "CN(C)c1ncc2cc(Cc3ccccc3)c(=O)n(C3CCCC3)c2n1", "note": "[Example 49, 6-Benzyl-8-cyclopentyl-2-dimethylamino-8H-pyrido[2,3-d]pyrimidin-7-one]", "melting point": "115 to 117 °C"},
      {"compound": "CCCN1CCC(Nc2ncc3cc(Cc4cccc(C)c4)c(=O)n(C4CCCC4)c3n2)CC1", "note": "[Example 61, 8-Cyclopentyl-6-(3-methyl-benzyl)-2-(1-propyl-piperidin-4-ylamino)-8H-pyrido[2,3-d]pyrimidin-7-one]", "melting point": "118 to 120 °C"},
      {"compound": "CN(C)CCCCNc1ncc2cc(Cc3ccccn3)c(=O)n(C3CCCC3)c2n1", "note": "[Example 89, 8-Cyclopentyl-2-(4-dimethylamino-butylamino)-6-pyridin-2-ylmethyl-8H-pyrido[2,3-d]pyrimidin-7-one]", "melting point": "105 to 107 °C"},
      {"compound": "Cc1ccccc1Cc1cc2cnc(NCCCN3CCN(C)CC3)nc2n(C2CCCC2)c1=O", "note": "[Example 77, 8-Cyclopentyl-6-(2-methyl-benzyl)-2-[3-(4-methyl-piperazin-1-yl)-propylamino]-8H-pyrido[2,3-d]pyrimidin-7-one]", "melting point": "> 45 °C"},
      {"compound": "Cc1ccc(Cc2cc3cnc(Nc4ccc(N5CCOC5=O)cc4)nc3n(C3CCCC3)c2=O)cc1", "note": "[Example 103, 8-Cyclopentyl-6-(4-methyl-benzyl)-2-[4-(2-oxo-oxazolidin-3-yl)-phenylamino]-8H-pyrido[2,3-d]pyrimidin-7-one]", "melting point": "289.2 to 290 °C"},
      {"compound": "CC(C)S(=O)(=O)N1CCC(Nc2ncc3cc(Cc4ccccc4)c(=O)n(C4CCCC4)c3n2)CC1", "note": "[Example 34, 6-Benzyl-8-cyclopentyl-2-[1-(propane-2-sulfonyl)-piperidin-4-ylamino]-8H-pyrido[2,3-d]pyrimidin-7-one]", "melting point": "210 to 212 °C"},
      {"compound": "CCCN1CCC(Nc2ncc3cc(Cc4ccc(CC)cc4)c(=O)n(C4CCCC4)c3n2)CC1", "note": "[Example 62, 8-Cyclopentyl-6-(4-ethyl-benzyl)-2-(1-propyl-piperidin-4-ylamino)-8H-pyrido[2,3-d]pyrimidin-one]", "melting point": "151 to 153 °C"}
    ]}
  ]
}
